Legend:
[1] = refractive index (other wavelength) (dimensionless); conditions: 100 kPa, Liquid, Wavelength=632.8 nm, Standard Abbe refractometry
[2] = refractive index (other wavelength) (dimensionless); xn = mol fraction of the nth substance listed; conditions: 296.36 K, 100 kPa, Liquid, Wavelength=632.8 nm, Standard Abbe refractometry

CCCCCCCCC [nonane]
[1]
Conditions | refractive index
290.88 K | 1.4053
291.94 K | 1.4048
292.73 K | 1.4044
293.55 K | 1.404
294.5 K | 1.4036
295.51 K | 1.4031
296.48 K | 1.4026
297.42 K | 1.4022

O=[N+]([O-])c1ccccc1 [nitrobenzene]
[1]
Conditions | refractive index
288.97 K | 1.5501
289.62 K | 1.5497
290.5 K | 1.5493
291.45 K | 1.5488
292.36 K | 1.5484
293.38 K | 1.5479
294.4 K | 1.5474
295.5 K | 1.5469
301.66 K | 1.5439
302.72 K | 1.5433
303.85 K | 1.5428
304.98 K | 1.5423
306.08 K | 1.5418
307.2 K | 1.5412
308.25 K | 1.5407
309.34 K | 1.5402

O=[N+]([O-])c1ccccc1 [nitrobenzene] + CCCCCCCCC
[2]
Conditions | refractive index
x1 = 0.153 | 1.4162
x1 = 0.2 | 1.4207
x1 = 0.275 | 1.4284
x1 = 0.379 | 1.4401
x1 = 0.541 | 1.4612
x1 = 0.594 | 1.4691
x1 = 0.688 | 1.4838
x1 = 0.799 | 1.5035
x1 = 0.896 | 1.5231
x1 = 1 | 1.5467

CCCCCCCCC [nonane] + O=[N+]([O-])c1ccccc1
Conditions | refractive index
[2], x2 = 0 | 1.4029

— the NIST ThermoML archive (doi:10.1021/je401097f)
